# From patent publication US12246034B2, “Animal feed supplement and method” (CAN TECHNOLOGIES, INC., priority 2014, dated 2025)
# Like-named read-outs stand apart in the source and are kept apart here.
# Columns and labels:
# [1] = test system: sows; conditions: for Probability of piglet Livability: 1-((stillborn + died pre weaning)/total pigs after cross fostering)
# Text: During lactation, sows were fed either the positive control or negative control standard lactation diet according to a step-up feeding schedule. Until farrowing the sows were fed a fixed amount of either the positive or negative controls of the standard lactation diet twice a day. After farrowing the amount of feed either the positive or negative controls of the standard lactation diet fed was increased gradually till a maximum of 8 kg/sow per day. The amount of which could be adjusted based on the appetite of the sow. Piglets were fed Ad libitum (no milk was provided other than from the sow a commercial creep feed (meal, dry) from day 4-16 of age and a pelleted commercial prestarter from day 16 till weaning. In total, 150 sows were allocated over the three rooms based on parity. Within 2 days after farrowing, litters were standardized to 13-14 piglets per sow.
# The following measurements were recorded as shown in TABLE 1C: (i) sow weight and backfat thickness when entering the farrowing room (day 111 of gestation) and at weaning (22 days post farrowing); (ii) sow reproductive performance was recorded right after farrowing (number of piglets born total, alive, stillborn, mummified); (iii) piglets weights were recorded at birth, day 5 after birth and at weaning; (iv) creep feed intake of piglets between day 4 and weaning was recorded; (v) number of piglets alive at day 4 and at weaning were registered; (vi) when piglets died, the reason for dying was also registered; and (vii) interventions during the birth process (e.g. the use of planate, oxytocin and birth assistance).
# [2] = test system: sows; conditions: 0.1% calcium nitrate in phase 1 diet, 19 May 2014 till 16 Aug. 2014
# Description: 600 sows and all sows were fed two diets over the test period. The first diet (phase 1) was fed from approximately 5 days pre-farrowing until 5 days post-farrowing. The second diet (phase 2) was fed from day 5 post-farrowing until weaning.
# The following measurements were recorded as shown in TABLE 2A: (i) gestation length; (ii) sow reproductive performance was recorded right after farrowing (number of piglets born total, alive, stillborn); (iii) piglet; (iv) total piglets weaned; (v) weaning weights; and (vi) piglets per sow per year; and […].
# [3] = test system: sows; conditions: for NBA (Number Born Alive) / TNB (Total Number Born) / Litter growth, 24 hour to 3 days / Litter growth, Start to 24 hour / Litter growth, Start to 3 days / Piglet weight, 24 hour / Piglet weight, 3 days / Piglet weight, Start / Birth weight: LS Means ± SEM; for NBD (Number Born Death), stillborn piglets / Mortality: log transformed, back-transformed to absolute values; for Litter weight, 24 hour / Litter weight, 3 days / Litter weight, Start: corrected for mortality and cross fostering; for Birth weight: litter
# Description: A field trial was conducted on a commercial farm in Denmark with 650 highly productive Danbred sows (Landrace x Yorkshire) inseminated with a pure line Duroc boar, between Nov. 17, 2014 and Jan. 16, 2015. A total of 139 sows (total number before analyzes) were included in the trial, divided over 3 subsequent sow groups farrowing over a time span of 6 weeks. For all analyzes SAS software (version 9.3, SAS Institute Inc., Cary, N.C.) was used. Sows received a dry meal transition feed (from gestation to lactation), fed from day 111 of gestation till day 5 of lactation, and were allocated to one of the two treatment groups based on parity. […] The total amount of calcium was equal between both experimental treatments. Number born alive (NBA), stillborn and mummies, litter birth weight, as well as back fat of the sows before farrowing (day 110 of gestation) and at weaning (day 24 of lactation) were measured. Litter weights at 24 hours and 3 days after birth were measured as well. On day 3 after birth blood samples were taken from 6 piglets (2 biggest, 2 medium and 2 smallest) from 65 litters of their tails when they were cut and analyzed on immunoglobulin G (IgG) concentration. Placentas of the sows were collected after the farrowing process was finished, stored in freezers and afterwards scored on redness for an indication of the vascularization of these placentas.
# [4] = 0.1% Bolifor CNF in lactation diet, means
# [5] = 0.1% Bolifor CNF, induction of sows as covariable
# [6] = 0.1% Bolifor CNF, induction of sows as covariable, listed as calcium nitrate
# [7] = piglets, 0.1% Bolifor CNF, corrected for lactation length
# [8] = 0.1% Bolifor CNF in transition feed, listed as Bolifor CNF ®
# [9] = 0.1% Bolifor CNF in transition feed, listed as Bolifor CNF®
# [10] = 0.1% Bolifor CNF, listed as Bolifor CNF ®
# [11] = 0.1% Bolifor CNF, listed as Bolifor CNF®
smiles,measurement,setting,value
"O=[N+]([O-])[O-].O=[N+]([O-])[O-].[Ca+2] [Bolifor CNF, calcium nitrate]",Probability Born Mummified,[1]; 0.1% Bolifor CNF in lactation diet,2.3%
same,Total born,[1]; [4],16.3
same,Total born alive,[1]; [4],15.3
same,Total still born,[1]; [4],1.0
same,Total weaned,[1]; [4],13.1
same,Probability of piglet Livability,[1]; 0.1% Bolifor CNF,89.8
same,Probability of piglet Livability,"[1]; 0.1% Bolifor CNF, listed as calcium nitrate",numerically higher
same,Probability Still Born,[1]; [5],6.2%
same,Probability born alive,[1]; [5],93.8%
same,Probability of piglet mortality from cross fostering (day 4-5)-weaning,[1]; [5],2.0%
same,Probability of piglets alive at day 4-5,[1]; [5],92.5%
same,Probability Still Born,[1]; [6],numerically lower
same,Probability born alive,[1]; [6],numerically higher
same,ADG 0-5,"[1]; piglets, 0.1% Bolifor CNF",157 g/day
same,ADG 5-weaning,"[1]; piglets, 0.1% Bolifor CNF",245.3 g/day
same,Average birth weight,"[1]; piglets, 0.1% Bolifor CNF",1.36 kg
same,Average weight post fostering,"[1]; piglets, 0.1% Bolifor CNF",2.30 kg
same,Litter weight Pre fostering,"[1]; piglets, 0.1% Bolifor CNF",19.8 kg
same,Litter weight post fostering,"[1]; piglets, 0.1% Bolifor CNF, calculated, not measured",30.8 kg
same,Average weight at weaning,[1]; [7],6.71 kg
same,Litter weight at weaning,[1]; [7],82.0 kg
same,Litter weight at weaning,"[1]; piglets, 0.1% Bolifor CNF, corrected for lactation length, listed as calcium nitrate",numerically higher
same,Born Alive,[2],15.8
same,Mortality,[2],10.5%
same,Piglets/sow/year,[2],34.1
same,Pregnancy rate,[2],94.5%
same,Total born,[2],17.3
same,Weaning weight,[2],6.7 kg
same,Piglet Livability,[2]; listed as Calcium nitrate,82.7%
same,Piglets Weaned,[2]; listed as Calcium nitrate,14.3
same,Still Born,[2]; listed as Calcium nitrate,1.5
same,Piglet Livability,[2]; listed as calcium nitrate,increase
same,Piglets Weaned,[2]; listed as calcium nitrate,increase
same,Still Born,[2]; listed as calcium nitrate,decrease
same,NBA (Number Born Alive),[3]; [8],16.84 ± 0.170
same,TNB (Total Number Born),[3]; [8],17.90 ± 0.460
same,NBA (Number Born Alive),[3]; [9],16.84
same,TNB (Total Number Born),[3]; [9],did not differ
same,"NBD (Number Born Death), stillborn piglets",[3]; [8],1.32 ± 0.006
same,"NBD (Number Born Death), stillborn piglets",[3]; [9],1.32
same,"Litter growth, 24 hour to 3 days",[3]; [10],1.80 ± 0.140 kg/day
same,"Litter growth, Start to 24 hour",[3]; [10],1.21 ± 0.161 kg/day
same,"Litter growth, Start to 3 days",[3]; [10],3.03 ± 0.234 kg/day
same,"Piglet weight, 24 hour",[3]; [10],1.41 ± 0.012 kg
same,"Piglet weight, 3 days",[3]; [10],1.55 ± 0.018 kg
same,"Piglet weight, Start",[3]; [10],1.32 ± 0.046 kg
same,"Litter growth, 24 hour to 3 days",[3]; [11],no differences were found
same,"Litter growth, Start to 24 hour",[3]; [11],no differences were found
same,"Litter growth, Start to 3 days",[3]; [11],no differences were found
same,"Piglet weight, 24 hour",[3]; [11],did not differ
same,"Piglet weight, 3 days",[3]; [11],did not differ
same,"Piglet weight, Start",[3]; [11],did not differ
same,"Colostrum, CI per piglet","[3]; 0.1% Bolifor CNF, calculated colostrum intake",222.02 g
same,"Colostrum, CI (Colostrum Intake)","[3]; 0.1% Bolifor CNF, calculated colostrum intake, listed as Bolifor CNF ®",2858.60 g
same,"Colostrum, CI (Colostrum Intake)","[3]; 0.1% Bolifor CNF, calculated colostrum intake, listed as Bolifor CNF®",No differences were found
same,"Litter weight, 24 hour",[3]; [10],18.14 kg
same,"Litter weight, 3 days",[3]; [10],19.93 kg
same,"Litter weight, Start",[3]; [10],16.70 kg
same,"Litter weight, 24 hour",[3]; [11],did not differ
same,"Litter weight, 3 days",[3]; [11],did not differ
same,"Litter weight, Start",[3]; [11],did not differ
same,"Piglet growth, 24 hour to 3 days",[3]; [10],0.140 kg/day
same,"Piglet growth, Start 3 days",[3]; [10],0.235 kg/day
same,"Piglet growth, Start to 24 hour",[3]; [10],0.093 kg/day
same,"Piglet growth, 24 hour to 3 days",[3]; [11],no differences were found
same,"Piglet growth, Start 3 days",[3]; [11],no differences were found
same,"Piglet growth, Start to 24 hour",[3]; [11],no differences were found
same,Mortality,[3]; [10],1.87
same,Mortality,[3]; [11],did not differ
same,Birth weight,[3]; [8],21.70 ± 0.614 kg
same,Birth weight,[3]; [9],did not differ
same,"NBD, highest parity group","[3]; parities >4, 0.1% Bolifor CNF in transition feed",1.21
